What was measured:
[1] = system: cysteines in MDA-MB-231 and Ramos cell proteomes; experiment: Competitive isoTOP-ABPP in cell lysates (in vitro): proteomic reactivity / liganded cysteine rate; type: binding, human; conditions: for proteomic reactivity value (liganded cysteine rate): fragment 500 μM, % of quantified cysteines with R ≥4
Method: All cell lines were obtained from ATCC, were used with a low passage number and were grown at 37° C. with 5% CO2. MDA-MB-231 cells and HEK-293T cells were grown in DMEM supplemented with 10% fetal bovine serum, penicillin, streptomycin and glutamine. Jurkat, Ramos and MUM2C cells were grown in RPMI-1640 medium supplemented with 10% fetal bovine serum, penicillin and streptomycin. For in vitro labeling, cells were grown to 100% confluence for MDA-MB-231 cells or until cell density reached 1.5 million cells/mL for Ramos and Jurkat cells. […] Cell pellets were lysed by sonication and fractionated (100,000 g, 45 min) to yield soluble and membrane fractions, which were then adjusted to a final protein concentration of 1.5 mg/mL for proteomics experiments and 1 mg/mL for gel-based ABPP experiments. The soluble lysate was prepared fresh from frozen pellets directly before each experiment. Protein concentration was determined using the Bio-Rad DC™ protein assay kit.
For each sample, 100 μL of streptavidin-agarose beads slurry (Pierce) was washed in 10 mL PBS and then resuspended in 5 mL PBS. The SDS-solubilized proteins were added to the suspension of streptavidin-agarose beads and the bead mixture was rotated for 3 h at ambient temperature. After incubation, the beads were pelleted by centrifugation (1,400 g, 3 min) and were washed (2×10 mL PBS and 2×10 mL water).
The beads were transferred to eppendorf tubes with 1 mL PBS, centrifuged (1,400 g, 3 min), and resuspended in PBS containing 6 M urea (500 μL). To this was added 10 mM DTT (25 μL of a 200 mM stock in water) and the beads were incubated at 65° C. for 15 mins. 20 mM iodoacetamide (25 μL of a 400 mM stock in water) was then added and allowed to react at 37° C. for 30 mins with shaking. The bead mixture was diluted with 900 μL PBS, pelleted by centrifugation (1,400 g, 3 min), and resuspended in 200 μL PBS. To this was added 1 mM CaCl2 ([…]) and trypsin (2 μg, Promega, sequencing grade) and the digestion was allowed to proceed overnight at 37° C. with shaking. The beads were separated from the digest with Micro Bio-Spin columns (Bio-Rad) by centrifugation (1,000 g, 1 min), washed (2×1 mL PBS and 2×1 mL water) and then transferred to fresh eppendorfs with 1 mL water. The washed beads were washed once further in 140 μL TEV buffer (50 mM Tris, pH 8, 0.5 mM EDTA, 1 mM DTT) and then resuspended in 140 μL TEV buffer. 5 μL TEV protease (80 μM) was added and the reactions were rotated overnight at 29° C. The TEV digest was separated from the beads with Micro Bio-Spin columns by centrifugation (1,400 g, 3 min) and the beads were washed once with water (100 μL). The samples were then acidified to a final concentration of 5% (v/v) formic acid and stored at −80° C. prior to analysis.

IMPDH2 (C140) = target: T1, IMPDH2 (C140) (Homo sapiens, UniProt P12268); experiment: Click probe 18 labeling of recombinant IMPDH2 and its competition; type: binding; conditions: probe 18 25 μM
T1 construct: Full length cDNAs encoding for IDH1 (Open Biosystems, Clone ID: 3880331) and IMPDH2 (Open Biosystems, Clone ID: 3447994); His6 (C); made in house; host or cells: E. coli BL21(DE3)

[2] = system: protein targets in MDA-MB-231 cells; experiment: Whole protein capture with click probes (SILAC proteomics), native vs heat denatured; type: binding, human; conditions: proteins liganded by parent fragment (3 / 14) and enriched by click probe (19 / 18)
Method: Protein enrichment by 18 and 19 was measured by whole protein capture of isotopically-SILAC labeled MDA-MB-231 cells using quantitative (SILAC) proteomics.

PDIA6 C190 (Q15084) = target: T2, PDIA6 C190 (Q15084) (Homo sapiens, UniProt Q15084); experiment: Competitive isoTOP-ABPP, cell lysates; type: binding; conditions: 500 μm, in-vitro_ramos_231;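 further: Heavy/light ratio DMSO over fragment-treated so higher means more cysteine engagement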
T2 sequence (Q15084 20-440): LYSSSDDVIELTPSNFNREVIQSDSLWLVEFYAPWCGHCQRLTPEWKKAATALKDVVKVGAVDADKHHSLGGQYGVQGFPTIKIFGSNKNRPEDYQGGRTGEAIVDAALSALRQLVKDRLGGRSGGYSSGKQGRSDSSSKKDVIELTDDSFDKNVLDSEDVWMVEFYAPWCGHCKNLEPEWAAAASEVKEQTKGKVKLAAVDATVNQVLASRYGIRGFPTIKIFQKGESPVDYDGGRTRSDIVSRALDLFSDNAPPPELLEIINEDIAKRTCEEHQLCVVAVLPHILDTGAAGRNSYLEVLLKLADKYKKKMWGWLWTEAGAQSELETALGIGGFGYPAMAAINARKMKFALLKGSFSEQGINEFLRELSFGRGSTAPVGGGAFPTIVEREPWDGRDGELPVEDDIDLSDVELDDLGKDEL
Method: (§1) TEV digests were pressure loaded onto a 250 μm (inner diameter) fused silica capillary column packed with C18 resin (Aqua 5 μm, Phenomenex). The samples were analyzed by multidimensional liquid chromatography tandem mass spectrometry (MudPIT), using an LTQ-Velos Orbitrap mass spectrometer (Thermo Scientific) coupled to an Agilent 1200-series quaternary pump. The peptides were eluted onto a biphasic column with a 5 μm tip (100 μm fused silica, packed with C18 (10 cm) and bulk strong cation exchange resin (3 cm, SCX, Phenomenex,)) in a 5-step MudPIT experiment, using 0%, 30%, 60%, 90%, and 100% salt bumps of 500 mM aqueous ammonium acetate and using a gradient of 5-100% buffer B in buffer A (buffer A: 95% water, 5% acetonitrile, 0.1% formic acid; buffer B: 5% water, 95% acetonitrile, 0.1% formic acid) as has been described in Weerapana et al. Nat Protoc 2:1414-1425 (2007). Data was collected in data-dependent acquisition mode with dynamic exclusion enabled (20 s, repeat of 2). One full MS (MS1) scan (400-1800 m/z) was followed by 30 MS2 scans (ITMS) of the nth most abundant ions.
(§2) The ratios of heavy/light for each unique peptide (DMSO/compound treated; isoTOP-ABPP ratios, R values) were quantified with in-house CIMAGE software, using default parameters (3 ms s per peak and signal to noise threshold 2.5). Site-specific engagement of electrophilic fragments was assessed by blockade of IA-alkyne probe labeling. […] Ratios for unique peptide entries were calculated for each experiment; overlapping peptides with the same modified cysteine (e.g. different charge states, MudPIT chromatographic steps or tryptic termini) were grouped together and the median ratio was reported as the final ratio (R). The peptide ratios reported by CIMAGE were further filtered to ensure the removal or correction of low quality ratios in each individual dataset. The quality filters applied were the following: removal of half tryptic peptides; for ratios with high standard deviations from the median (90% of the median or above) the lowest ratio was taken instead of the median; removal of peptides with R=20 and only a single ms2 event triggered during the elution of the parent ion; manual annotation of all the peptides with ratios of 20, removing any peptides with low-quality elution profiles that remained after the previous curation steps. Proteome reactivity values for individual fragments were computed as the percentage of the total quantified cysteine-containing peptides with R values≥4 (defined as liganded cysteines) for each replicate experiment and the final proteome reactivity value was calculated as the mean for all replicate experiments for each fragment from both MDA-MB-231 and Ramos cellular proteomes.
(§3) Biological replicates of the same compound and cell-line were averaged if the standard deviation was below 60% of the mean; otherwise the lowest value of the ratio set was taken.

IDH1 C269 (O75874) = IDH1 C269 (O75874) (Homo sapiens, UniProt O75874); experiment: Competitive isoTOP-ABPP, cell lysates; type: binding; conditions: 500 μm, in-vitro_ramos_231
Method: as §1, §2, §3

DCUN1D1 C115 (Q96GG9) = DCUN1D1 C115 (Q96GG9) (Homo sapiens, UniProt Q96GG9); experiment: Competitive isoTOP-ABPP, cell lysates; type: binding; conditions: 500 μm, in-vitro_ramos_231
Method: as §1, §2, §3

XPO1 C34 (O14980) = XPO1 C34 (O14980) (Homo sapiens, UniProt O14980); experiment: Competitive isoTOP-ABPP, cell lysates; type: binding; conditions: 500 μm, in-vitro_ramos_231
Method: as §1, §2, §3

PDIA6 C55 (Q15084) = target: T3, PDIA6 C55 (Q15084) (Homo sapiens, UniProt Q15084); experiment: Competitive isoTOP-ABPP, cell lysates; type: binding; conditions: 500 μm, in-vitro_ramos_231
T3 sequence (Q15084 20-440): T2 sequence (Q15084 20-440)
Method: as §1, §2, §3

STAT3 C259 (P40763) = STAT3 C259 (P40763) (Homo sapiens, UniProt P40763); experiment: Competitive isoTOP-ABPP, cell lysates; type: binding; conditions: 500 μm, in-vitro_ramos_231
Method: as §1, §2, §3

PRMT1 C109 (Q99873) = PRMT1 C109 (Q99873) (Homo sapiens, UniProt Q99873); experiment: Competitive isoTOP-ABPP, cell lysates; type: binding; conditions: 500 μm, in-vitro_ramos_231;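 further: Heavy/light ratio DMSO over fragment-treated so higher means more cysteine engagement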
Method: as §1, §2, §3

MLTK C22 (Q9NYL2) = MLTK C22 (Q9NYL2) (Homo sapiens, UniProt Q9NYL2); experiment: Competitive isoTOP-ABPP, cell lysates; type: binding; conditions: 500 μm, in-vitro_ramos_231
Method: as §1, §2, §3

GSTP1 C48 (P09211) = GSTP1 C48 (P09211) (Homo sapiens, UniProt P09211); experiment: Competitive isoTOP-ABPP, cell lysates; type: binding; conditions: 500 μm, in-vitro_ramos_231;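 further: Heavy/light ratio DMSO over fragment-treated so higher means more cysteine engagement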
Method: as §1, §2, §3

CASP8 C360 (Q14790) = CASP8 C360 (Q14790) (Homo sapiens, UniProt Q14790); experiment: Competitive isoTOP-ABPP, cell lysates; type: binding
Method: as §1, §2, §3

ACAT1 C126 (P24752) = target: T4, ACAT1 C126 (P24752) (Homo sapiens, UniProt P24752); experiment: Competitive isoTOP-ABPP, cell lysates; type: binding; conditions: 500 μm, in-vitro_ramos_231
T4 sequence (P24752 34-427): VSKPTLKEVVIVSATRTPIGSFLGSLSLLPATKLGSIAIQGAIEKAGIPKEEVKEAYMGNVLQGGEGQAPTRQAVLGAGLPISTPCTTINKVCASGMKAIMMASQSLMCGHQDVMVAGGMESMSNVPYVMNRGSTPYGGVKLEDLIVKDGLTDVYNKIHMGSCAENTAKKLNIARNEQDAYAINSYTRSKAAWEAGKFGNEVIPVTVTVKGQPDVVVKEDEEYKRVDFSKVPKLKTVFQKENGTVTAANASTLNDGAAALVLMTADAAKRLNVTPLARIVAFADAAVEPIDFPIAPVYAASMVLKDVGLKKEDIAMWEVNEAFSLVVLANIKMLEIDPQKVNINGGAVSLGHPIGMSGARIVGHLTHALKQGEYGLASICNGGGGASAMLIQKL

ACAT1 C413 (P24752) = target: T5, ACAT1 C413 (P24752) (Homo sapiens, UniProt P24752); experiment: Competitive isoTOP-ABPP, cell lysates; type: binding; conditions: 500 μm, in-vitro_ramos_231
T5 sequence (P24752 34-427): T4 sequence (P24752 34-427)

ACAT1 C119 (P24752) = target: T6, ACAT1 C119 (P24752) (Homo sapiens, UniProt P24752); experiment: Competitive isoTOP-ABPP, cell lysates; type: binding; conditions: 500 μm, in-vitro_ramos_231
T6 sequence (P24752 34-427): T4 sequence (P24752 34-427)

ACAT1 C196 (P24752) = target: T7, ACAT1 C196 (P24752) (Homo sapiens, UniProt P24752); experiment: Competitive isoTOP-ABPP, cell lysates; type: binding; conditions: 500 μm, in-vitro_ramos_231
T7 sequence (P24752 34-427): T4 sequence (P24752 34-427)

pro-CASP8 = target: T8, pro-CASP8 (Homo sapiens, UniProt Q14790, D374A/D384A); experiment: Click probe 61 labeling of pro-CASP8 and its competition; type: binding
T8 construct: a truncated CASP8 (residues 217-479) without the CARD domain; His6 (C); made in house; host or cells: E. coli BL21(DE3)pLysS
T8 sequence (Q14790 217-479 D374A/D384A): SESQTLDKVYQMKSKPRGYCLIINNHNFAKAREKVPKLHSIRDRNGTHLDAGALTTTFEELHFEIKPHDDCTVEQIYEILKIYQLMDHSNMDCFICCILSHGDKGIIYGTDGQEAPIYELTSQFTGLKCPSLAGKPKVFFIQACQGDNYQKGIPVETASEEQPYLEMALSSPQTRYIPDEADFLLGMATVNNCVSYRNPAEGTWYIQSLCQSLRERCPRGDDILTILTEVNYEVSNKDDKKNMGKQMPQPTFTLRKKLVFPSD

Sequence of CASP8 C360 (Q14790) (Q14790 whole entry): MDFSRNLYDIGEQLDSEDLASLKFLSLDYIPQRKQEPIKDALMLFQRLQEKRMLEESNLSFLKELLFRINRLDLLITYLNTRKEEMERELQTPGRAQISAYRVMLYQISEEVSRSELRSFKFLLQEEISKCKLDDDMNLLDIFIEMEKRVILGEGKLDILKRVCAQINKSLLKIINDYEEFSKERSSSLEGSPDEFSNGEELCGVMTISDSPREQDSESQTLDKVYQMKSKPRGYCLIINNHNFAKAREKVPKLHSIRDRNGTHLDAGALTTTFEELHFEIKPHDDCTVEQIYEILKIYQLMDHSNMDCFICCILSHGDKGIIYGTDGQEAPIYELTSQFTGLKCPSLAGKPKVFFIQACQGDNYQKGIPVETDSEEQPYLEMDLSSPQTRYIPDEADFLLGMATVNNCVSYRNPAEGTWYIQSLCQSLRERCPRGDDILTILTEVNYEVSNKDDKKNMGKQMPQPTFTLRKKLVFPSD
Sequence of MLTK C22 (Q9NYL2) (Q9NYL2 whole entry): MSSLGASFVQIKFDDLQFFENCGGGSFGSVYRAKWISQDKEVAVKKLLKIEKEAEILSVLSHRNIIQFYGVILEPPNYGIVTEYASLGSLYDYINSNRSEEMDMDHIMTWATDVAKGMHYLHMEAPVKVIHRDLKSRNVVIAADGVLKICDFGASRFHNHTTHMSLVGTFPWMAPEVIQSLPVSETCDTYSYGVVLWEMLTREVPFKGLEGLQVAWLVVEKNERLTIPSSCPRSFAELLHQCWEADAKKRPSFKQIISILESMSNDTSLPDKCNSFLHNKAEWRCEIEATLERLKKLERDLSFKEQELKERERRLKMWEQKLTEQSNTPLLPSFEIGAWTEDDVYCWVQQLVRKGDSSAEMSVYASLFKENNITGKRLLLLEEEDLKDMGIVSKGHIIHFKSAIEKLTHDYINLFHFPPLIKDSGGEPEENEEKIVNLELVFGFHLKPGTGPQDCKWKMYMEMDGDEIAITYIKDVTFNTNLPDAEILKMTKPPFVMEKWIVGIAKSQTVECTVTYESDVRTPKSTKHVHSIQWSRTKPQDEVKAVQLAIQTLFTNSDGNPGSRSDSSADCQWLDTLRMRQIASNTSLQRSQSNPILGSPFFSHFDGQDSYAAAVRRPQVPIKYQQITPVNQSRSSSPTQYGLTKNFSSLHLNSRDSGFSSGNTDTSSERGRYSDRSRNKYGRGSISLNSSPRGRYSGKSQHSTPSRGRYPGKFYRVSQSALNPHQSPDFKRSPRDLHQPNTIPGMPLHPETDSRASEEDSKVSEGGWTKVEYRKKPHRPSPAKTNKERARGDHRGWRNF
Sequence of PRMT1 C109 (Q99873) (Q99873 whole entry, the tested form may be a part): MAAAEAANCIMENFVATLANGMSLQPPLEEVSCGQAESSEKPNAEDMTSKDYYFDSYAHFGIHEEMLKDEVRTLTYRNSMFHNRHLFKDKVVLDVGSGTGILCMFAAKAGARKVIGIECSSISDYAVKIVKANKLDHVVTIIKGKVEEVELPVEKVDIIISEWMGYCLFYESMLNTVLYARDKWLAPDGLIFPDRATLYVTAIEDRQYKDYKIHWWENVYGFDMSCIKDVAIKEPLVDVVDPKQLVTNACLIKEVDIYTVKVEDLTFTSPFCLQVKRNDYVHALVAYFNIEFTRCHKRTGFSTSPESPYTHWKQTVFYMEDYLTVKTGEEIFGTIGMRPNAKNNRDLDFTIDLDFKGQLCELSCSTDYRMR
Sequence of GSTP1 C48 (P09211) (P09211 whole entry, the tested form may be a part): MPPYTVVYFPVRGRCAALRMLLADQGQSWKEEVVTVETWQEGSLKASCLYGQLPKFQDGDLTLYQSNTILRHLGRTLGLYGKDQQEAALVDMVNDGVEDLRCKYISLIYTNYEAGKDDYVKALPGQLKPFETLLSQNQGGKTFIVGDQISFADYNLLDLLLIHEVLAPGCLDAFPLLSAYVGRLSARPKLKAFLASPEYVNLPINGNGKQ
Sequence of DCUN1D1 C115 (Q96GG9) (Q96GG9 whole entry): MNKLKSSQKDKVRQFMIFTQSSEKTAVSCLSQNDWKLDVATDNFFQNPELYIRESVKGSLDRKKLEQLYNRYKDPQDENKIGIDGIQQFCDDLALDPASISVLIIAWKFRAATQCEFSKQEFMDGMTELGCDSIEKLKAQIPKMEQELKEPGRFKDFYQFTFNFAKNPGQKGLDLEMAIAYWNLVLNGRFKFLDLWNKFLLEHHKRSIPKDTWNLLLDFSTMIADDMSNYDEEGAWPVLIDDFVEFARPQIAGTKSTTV
Sequence of IDH1 C269 (O75874) (O75874 whole entry): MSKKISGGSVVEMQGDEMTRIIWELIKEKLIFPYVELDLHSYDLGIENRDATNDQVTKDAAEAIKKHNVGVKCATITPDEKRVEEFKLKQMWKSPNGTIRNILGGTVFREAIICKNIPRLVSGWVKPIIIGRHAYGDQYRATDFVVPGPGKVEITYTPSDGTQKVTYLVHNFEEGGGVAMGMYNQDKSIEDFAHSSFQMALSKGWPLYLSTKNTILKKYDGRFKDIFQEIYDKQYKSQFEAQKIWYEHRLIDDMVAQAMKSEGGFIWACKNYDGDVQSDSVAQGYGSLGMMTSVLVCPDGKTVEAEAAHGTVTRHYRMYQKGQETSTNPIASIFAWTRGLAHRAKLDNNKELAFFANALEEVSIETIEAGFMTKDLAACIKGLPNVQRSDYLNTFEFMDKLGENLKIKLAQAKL
Sequence of STAT3 C259 (P40763) (P40763 whole entry): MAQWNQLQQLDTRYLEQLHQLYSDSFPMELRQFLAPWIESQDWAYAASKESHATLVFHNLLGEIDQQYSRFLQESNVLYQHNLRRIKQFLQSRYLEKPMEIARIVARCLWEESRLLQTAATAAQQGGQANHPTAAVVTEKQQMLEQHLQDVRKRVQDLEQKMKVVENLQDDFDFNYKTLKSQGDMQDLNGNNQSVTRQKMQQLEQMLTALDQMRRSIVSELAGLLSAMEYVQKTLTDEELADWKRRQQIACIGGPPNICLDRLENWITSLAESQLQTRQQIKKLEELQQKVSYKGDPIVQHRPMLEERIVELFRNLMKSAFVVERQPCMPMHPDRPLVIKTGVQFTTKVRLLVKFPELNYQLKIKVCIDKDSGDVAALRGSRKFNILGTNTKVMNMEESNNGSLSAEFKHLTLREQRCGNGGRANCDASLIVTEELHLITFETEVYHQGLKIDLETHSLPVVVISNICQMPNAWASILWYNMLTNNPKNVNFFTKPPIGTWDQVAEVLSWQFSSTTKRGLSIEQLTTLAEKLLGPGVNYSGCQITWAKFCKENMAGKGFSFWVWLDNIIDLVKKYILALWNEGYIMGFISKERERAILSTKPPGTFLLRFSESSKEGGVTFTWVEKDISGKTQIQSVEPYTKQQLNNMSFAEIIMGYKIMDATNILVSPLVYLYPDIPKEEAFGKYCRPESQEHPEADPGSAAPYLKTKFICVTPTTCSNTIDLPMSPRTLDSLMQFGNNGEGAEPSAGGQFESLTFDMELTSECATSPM
Sequence of XPO1 C34 (O14980) (O14980 whole entry): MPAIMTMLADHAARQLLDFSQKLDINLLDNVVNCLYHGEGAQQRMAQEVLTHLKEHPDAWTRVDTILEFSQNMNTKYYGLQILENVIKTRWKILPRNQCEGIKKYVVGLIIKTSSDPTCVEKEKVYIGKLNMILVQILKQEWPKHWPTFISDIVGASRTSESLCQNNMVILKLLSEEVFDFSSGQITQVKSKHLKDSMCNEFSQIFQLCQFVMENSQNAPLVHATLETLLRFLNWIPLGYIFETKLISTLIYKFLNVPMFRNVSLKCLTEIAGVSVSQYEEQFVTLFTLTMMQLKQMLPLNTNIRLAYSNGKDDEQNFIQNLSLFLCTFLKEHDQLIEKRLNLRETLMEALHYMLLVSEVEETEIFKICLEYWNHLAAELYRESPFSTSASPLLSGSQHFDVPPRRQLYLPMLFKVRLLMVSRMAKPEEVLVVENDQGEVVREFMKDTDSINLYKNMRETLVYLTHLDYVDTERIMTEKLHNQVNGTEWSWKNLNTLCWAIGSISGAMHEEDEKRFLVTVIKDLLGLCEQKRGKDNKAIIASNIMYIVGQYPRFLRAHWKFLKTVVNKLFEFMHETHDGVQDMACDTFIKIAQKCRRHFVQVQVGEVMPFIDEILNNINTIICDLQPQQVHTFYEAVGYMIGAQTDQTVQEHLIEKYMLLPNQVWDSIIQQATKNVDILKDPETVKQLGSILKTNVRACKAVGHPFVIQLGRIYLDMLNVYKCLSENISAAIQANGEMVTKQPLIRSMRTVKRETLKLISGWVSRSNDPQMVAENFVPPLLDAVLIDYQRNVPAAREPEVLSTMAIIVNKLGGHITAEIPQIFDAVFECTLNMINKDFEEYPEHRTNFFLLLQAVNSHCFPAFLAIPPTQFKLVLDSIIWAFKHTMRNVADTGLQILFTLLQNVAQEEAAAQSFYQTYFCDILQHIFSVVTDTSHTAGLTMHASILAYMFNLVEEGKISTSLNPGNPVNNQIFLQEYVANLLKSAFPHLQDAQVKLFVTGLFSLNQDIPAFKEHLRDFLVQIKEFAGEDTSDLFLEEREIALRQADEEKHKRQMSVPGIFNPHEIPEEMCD

Structure (SMILES): C=CC(=O)Nc1cc(C(F)(F)F)cc(C(F)(F)F)c1 [compound 14]
- proteomic reactivity value (liganded cysteine rate) [1]: 3.4%
- inhibition of 18 labeling of IMPDH2 by fragments (IMPDH2 (C140)): inhibited

Structure (SMILES): CC(=O)Nc1cc(C(F)(F)F)cc(C(F)(F)F)c1 [compound 17]
- relative proteomic reactivity (in words) ([1]; 500 μM, electrophiles on common 3,5-di(trifluoromethyl)phenyl group): negligible activity
- proteomic reactivity value (liganded cysteine rate) [1]: < 0.2%

Structure (SMILES): C#CCCCCNC(=O)c1cc(NC(=O)CCl)cc(C(F)(F)F)c1 [compound 19]
- percentage of quantified protein targets sensitive to heat denaturation [2]: 64%

Structure (SMILES): Cc1ncc(CO)c(CNC(=O)CCl)c1O [compound 54]
- isoTOP-ABPP reactivity profile ratio, Q15084_C190 (PDIA6 C190 (Q15084)): 1.2
- isoTOP-ABPP reactivity profile ratio, O75874_C269 (IDH1 C269 (O75874)): 1.1
- isoTOP-ABPP reactivity profile ratio, Q96GG9_C115 (DCUN1D1 C115 (Q96GG9)): 1.1
- isoTOP-ABPP reactivity profile ratio, O14980_C34 (XPO1 C34 (O14980)): 1.1
- isoTOP-ABPP reactivity profile ratio, Q15084_C55 (PDIA6 C55 (Q15084)): 1.2
- isoTOP-ABPP reactivity profile ratio, P40763_C259 (STAT3 C259 (P40763)): 1.3
- isoTOP-ABPP reactivity profile ratio, Q99873_C109 (PRMT1 C109 (Q99873)): 1.2
- isoTOP-ABPP reactivity profile ratio, Q9NYL2_C22 (MLTK C22 (Q9NYL2)): 1.1
- isoTOP-ABPP reactivity profile ratio, P09211_C48 (GSTP1 C48 (P09211)): 1.3
- isoTOP-ABPP reactivity profile ratio, Q14790_C360 (CASP8 C360 (Q14790); 500 μm, in-vitro_ramos_231): 1.2
- isoTOP-ABPP reactivity profile ratio, P24752_C126 (ACAT1 C126 (P24752)): 1.1
- isoTOP-ABPP reactivity profile ratio, P24752_C413 (ACAT1 C413 (P24752)): 1.1
- isoTOP-ABPP reactivity profile ratio, P24752_C119 (ACAT1 C119 (P24752)): 1.0
- isoTOP-ABPP reactivity profile ratio, P24752_C196 (ACAT1 C196 (P24752)): 1.1

Structure (SMILES): C#Cc1cccc(C(=O)N2CCC(N(C(=O)CCl)c3ccccc3)CC2)c1 [compound 61]
- R value for direct labeling of C360 (10 versus 100 μM probe) (CASP8 C360 (Q14790); Jurkat cell lysates): 2
- direct labeling of pro-CASP8 by click probe (pro-CASP8): strongly labeled
